Measurements taken from patent US6900200B2, “Tricyclic hydroxy carboxamides and derivatives thereof tocolytic oxytocin receptor antagonists” (Wyeth, priority 2001, dated 2005).

Each molecule was assayed against T1, human vasopressin V2 receptor subtype (Homo sapiens, UniProt P30518) (assay: Vasopressin binding in CHO cell membranes expressing human vasopressin V2 subtype receptors ([3H]arginine vasopressin radioligand binding)). Conditions: @ 100 nM.
T1 construct: host or cells: CHO cells, pZeoSV vector
T1 sequence (P30518 whole entry): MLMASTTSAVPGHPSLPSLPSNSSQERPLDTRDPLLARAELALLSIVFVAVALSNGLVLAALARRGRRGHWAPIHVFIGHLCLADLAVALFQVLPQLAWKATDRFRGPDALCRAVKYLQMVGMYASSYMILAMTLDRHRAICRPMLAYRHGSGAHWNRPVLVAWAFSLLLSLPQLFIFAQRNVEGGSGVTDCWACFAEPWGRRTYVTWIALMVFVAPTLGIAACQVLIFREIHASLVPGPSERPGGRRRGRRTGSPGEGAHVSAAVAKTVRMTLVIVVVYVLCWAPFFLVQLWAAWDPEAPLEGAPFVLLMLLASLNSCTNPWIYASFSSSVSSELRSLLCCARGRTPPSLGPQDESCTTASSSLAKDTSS
Text: Vasopressin Binding in Chinese Hamster Ovary Cell Membranes Expressing Human Vasopressin V2 Subtype Receptors
Chinese Hamster Ovary (CHO) cells stably transfected with the human V2 subtype receptors were obtained from M. Thibonnier, Case Western Reserve University School of Medicine, Cleveland, Ohio.
A. Passaging and Amplification of Cells
CHO cells transfected with the human vasopressin V2 subtype receptors obtained from M. Thibonnier (pZeoSV vector) are allowed to grow to confluency (approx. >90%) in T-150 flasks under sterile conditions, in a cell culture medium ofF-12 Nutrient Mixture (HAM) with L-glutamine (Gibco Cat. #11765-054) containing 15 mM HEPES (Gibco Cat. #15630-080), 1% antibiotic/antimycotic (add 5 mL 100×, Gibco Cat. #15240-062 per 500 mL F-12), 250 μg/mL Zeocin (add 1.25 mL of 100 mg/mL Invitrogen R-250-01 per 500 mL F-1 2) and 10% Fetal Bovine Serum (Qualified, heat inactivated, Gibco Cat. #16140-063). The medium is removed by aspiration and the cells washed with 10 mL of Hank's Balanced Salt solution (Gibco Cat. #14175-095). The salt solution is removed by aspiration and the cells trypsinized with 5 mL of trypsin-EDTA (0.05% trypsin, 0.53 mM EDTA-4Na, Gibco Cat. #25300-070) for 1 min. The trypsin is removed by aspiration and the cells dislodged by tapping. Cell Culture medium (e.g. 30 mL for 1:30 split) is immediately added and mixed well to inactivate trypsin. 1 mL of detached cells is added to new culture flasks containing fresh Cell Culture medium (e.g. into 25 mL per T-150 flask), and mixed gently. The cells are incubated at 37° C. in 5% CO2. The medium is changed at 3 to 4 day interval (or as appropriate). The cells grow to confluency (approx. >75%-95%) within 7-8 days. All steps are done under sterile conditions.
The cells are washed twice gently with Hank's Balanced Salt solution (e.g. use 10 mL per T-150 flask). The excess solution is removed and the cells bathed for 15-30 min. in an enzyme-free Cell Dissociation Buffer (e.g. use 8 mL Hank's Based, Gibco Cat. # 13150-016 per T-150 flask) until cells are loosened. The contents are transferred to centrifuge tubes (50 mL) kept in ice bath. All subsequent steps are done at 4° C. The tubes are centrifuged at 300×g for 15 min (1380 rpm on SORVAL, Model RT6000D, using the rotor for 50 mL tubes). The supernatant is discarded and the cells suspended in homogenizing buffer (10 mM Tris-HCl containing 0.25 M sucrose and 1 mM EDTA, pH 7.4) ensuring that the volume of the buffer is about ten times the volume of the cell pellet. The cells are pooled into a centrifuge tube (50 mL) and homogenized with Polytron at setting 6 for 10 sec. The homogenate is transferred into a Potter-Elvjehm homogenizer and homogenized with 3 strokes. The homogenate is centrifuged at 1500×g for 60 min at 4° C. (3100 rpm using SORVAL, model RT6000D, using the rotor for 50 mL tubes). The pellet is discarded. The supernatant is centrifuged at 100,000×g for 60 min. at 4° C. (Beckman L8-80M ultracentrifuge; spin at 37,500 rpm with rotor type 70 Ti for 50 mL tubes; 38,000 rpm with type 80Ti for 15 mL tubes; or 35,800 rpm with rotor type 45Ti). The supernantant is discarded and the pellet suspended in 3 to 4 mL of Tris buffer (50 mM TRIS—HCl, pH 7.4). The protein content is estimated by the Bradford or Lowry method. The volume of the membrane suspension is adjusted with the membrane buffer (50 mM Tris-HCl containing 0.1% BSA and 0.1 mM PMSF) to give 3.0 mg/mL (or as appropriate) of protein. The membranes are aliquoted and stored at −70. ° C.
C. Radioligand Binding Assay
In wells of a 96-well format microtiter plate, is added 90, 110 or 130 μL (to make up a final volume of 200 μL) of assay buffer containing 50 mM of Tris-HCl (pH 7.4), […], 1 mg % aprotinin, 1 mg % leupeptin, 2 mg % 1,10-phenanthroline, 10 mg % trypsin inhibitor, and 0.1 mM PMSF. The inhibitors are added on the day of the experiment. […]
With `COc1ccccc1-c1ccc(C(=O)N2Cc3ccc(C(=O)N4CCN(CCO)CC4)n3Cc3ccccc32)cc1OC` [Example 43, {10-[(2,2′-Dimethoxy[1,1′-biphenyl]-4-yl)carbonyl]-10,11-dihydro-5H-pyrrolo[2,1-c][1,4]benzodiazepin-3-yl}[4-(2-hydroxyethyl)-1-piperazinyl]methanone] the inhibition at 0.1 µM was 27%. `COc1cc(C(=O)N2Cc3ccc(C(=O)N4CCN(CCO)CC4)n3Cc3ccccc32)ccc1-n1c(C)ccc1C` [Example 52, {10-[4-(2,5-Dimethyl-1H-pyrrol-1-yl)-3-methoxybenzoyl]-10,11-dihydro-5H-pyrrolo[2,1-c][1,4]benzodiazepin-3-yl}[4-(2-hydroxyethyl)-1-piperazinyl]methanone] showed an inhibition at 0.1 µM of 3%. `COc1ccccc1-c1ccc(C(=O)N2Cc3ccc(C(=O)N(C)C[C@@H](O)CO)n3Cc3ccccc32)cc1C` (single isomer, unassigned) [Example 16] gave an inhibition at 0.1 µM of 51%. In the case of `Cc1ccccc1-c1ccc(C(=O)N2Cc3ccc(C(=O)N4CCN(CCO)CC4)n3Cc3ccccc32)cc1` [Example 45, [4-(2-Hydroxyethyl)-1-piperazinyl]{10-[(2′-methyl[1,1′-biphenyl]-4-yl)carbonyl]-10,11-dihydro-5H-pyrrolo[2,1-c][1,4]benzodiazepin-3-yl}methanone], the inhibition at 0.1 µM is reported as 9%. `Cc1cc(C(=O)N2Cc3ccc(C(=O)NC(CO)(CO)CO)n3Cc3ccccc32)ccc1-c1ccccc1C(F)(F)F` [Example 3, 10-[(2-Methyl-2′-trifluoromethyl-[1,1′-biphenyl]-4-yl)carbonyl]-10,11-dihydro-5H-pyrrolo[2,1-c][1,4]benzodiazepine-3-carboxylic acid (2-hydroxy-1,1-bis-hydroxymethyl-ethyl)-amide] gave an inhibition at 0.1 µM of 13%. With `COc1cccc(-c2ccc(C(=O)N3Cc4ccc(C(=O)N5CCN(CCO)CC5)n4Cc4ccccc43)cc2OC)c1` [Example 50, {10-[(2,3′-Dimethoxy[1,1′-biphenyl]-4-yl)carbonyl]-10,11-dihydro-5H-pyrrolo[2,1-c][1,4]benzodiazepin-3-yl}[4-(2-hydroxyethyl)-1-piperazinyl]methanone] the inhibition at 0.1 µM was 16%. For `O=C(c1ccc2n1Cc1ccccc1N(C(=O)c1ccc(-c3cccc4ccccc34)cc1Cl)C2)N1CCN(CCO)CC1` [Example 25, 2-{4-[10-{[2-Chloro-4-(naphthalen-1-yl)phenyl]carbonyl}-(10,11-dihydro-5H-pyrrolo[2,1-c][1,4]benzodiazepin-3-yl)carbonyl]piperazine-1-yl}-1-hydroxyethane], the inhibition at 0.1 µM was 21%. `COc1cccc(-c2cc(OC)c(C(=O)N3Cc4ccc(C(=O)N5CCN(CCO)CC5)n4Cc4ccccc43)cc2Cl)c1` [Example 49, {10-[(6-Chloro-3,3′-dimethoxy[1,1′-biphenyl]-4-yl)carbonyl]-10,11-dihydro-5H-pyrrolo[2,1-c][1,4]benzodiazepin-3-yl}[4-(2-hydroxyethyl)-1-piperazinyl]methanone] gave an inhibition at 0.1 µM of 21%. For `Cc1ccccc1-c1ccc(C(=O)N2Cc3ccc(C(=O)N4CCN(CCO)CC4)n3Cc3ccccc32)cc1C` [Example 46, {10-[(2,2′-Dimethyl[1,1′-biphenyl]-4-yl)carbonyl]-10,11-dihydro-5H-pyrrolo[2,1-c][1,4]benzodiazepin-3-yl}[4-(2-hydroxyethyl)-1-piperazinyl]methanone], the inhibition at 0.1 µM was 14%.

Same assay, conditions: value printed in parentheses
`Cc1ccc(-c2ccc(C(=O)N3Cc4ccc(C(=O)N(C)CC(O)CO)n4Cc4ccccc43)cc2)c2ccccc12` (stereo not drawn) [Example 26, 10-{[4-(4-Methyl-naphthalen-1-yl)phenyl]carbonyl}-10,11-dihydro-5H-pyrrolo[2,1-c][1,4]benzodiazepine-3-carboxylic acid (2,3-dihydroxy-propyl)-N-methylamide] was tested, and the IC50 was 11.3 nM. `COC[C@@H](O)CN1CCN(C(=O)c2ccc3n2Cc2ccccc2N(C(=O)c2ccc(-c4ccccc4C(F)(F)F)c(C)c2)C3)CC1` [Example 9, [3-({4-[(2S)-2-Hydroxy-3-methoxypropyl]-1-piperazinyl}carbonyl)-5H-pyrrolo[2,1-c][1,4]benzodiazepin-10(11H)-yl][2-methyl-2′-trifluoromethyl-[1,1′-biphenyl]-4-yl]methanone] gave an IC50 of 1230 nM. `COc1cc(-c2ccccc2C)c(Cl)cc1C(=O)N1Cc2ccc(C(=O)N3CCN(CCO)CC3)n2Cc2ccccc21` [Example 39, {10-[(6-Chloro-3-methoxy-2′-methyl[1,1′-biphenyl]-4-yl)carbonyl]-10,11-dihydro-5H-pyrrolo[2,1-c][1,4]benzodiazepin-3-yl}[4-(2-hydroxyethyl)-1-piperazinyl]methanone] was tested, and the IC50 was 383 nM. For `COc1cc(-c2ccccc2C(F)(F)F)c(Cl)cc1C(=O)N1Cc2ccc(C(=O)N(C)C[C@H](O)[C@@H](O)[C@H](O)[C@H](O)CO)n2Cc2ccccc21` [Example 20, 10-{[6-Chloro-3-methoxy-2′-trifluoromethyl-[1,1′-biphenyl]-4-yl]carbonyl}-N-methyl-N-[(2S,3R,4R,5R)-2,3,4,5,6-pentahydroxyhexyl]-10,11-dihydro-5H-pyrrolo[2,1-c][1,4]benzodiazepine-3-carboxamide], the IC50 was 227 nM. Work on `COC[C@H](O)CN1CCN(C(=O)c2ccc3n2Cc2ccccc2N(C(=O)c2ccc(-c4ccccc4C(F)(F)F)c(C)c2)C3)CC1` [Example 8, (2R)-1-Methoxy-3-{4-[(10-{[2-methyl-2′-trifluoromethyl-[1,1′-biphenyl]-4-yl]carbonyl}-10,11-dihydro-5H-pyrrolo[2,1-c][1,4]benzodiazepin-3-yl)carbonyl]piperazin-1-yl}propan-2-ol] yielded an IC50 of 769 nM. Molecule `COc1ccccc1-c1ccc(C(=O)N2Cc3ccc(C(=O)N(C)C[C@H](O)[C@@H](O)[C@H](O)[C@H](O)CO)n3Cc3ccccc32)cc1C` [Example 17, 10-[(2′-Methoxy-2-methyl-[1,1′-biphenyl]-4-yl)carbonyl]-10,11-dihydro-5H-pyrrolo[2,1-c][1,4]benzodiazepine-3-carboxylic acid methyl-[(2S,3R,4R, 5R)-2,3,4,5,6-pentahydroxy-hexyl)-amide] has an IC50 of 144 nM. Work on `COCC(CN(C)C(=O)c1ccc2n1Cc1ccccc1N(C(=O)c1ccc(-c3ccccc3C(F)(F)F)c(C)c1)C2)OC` (stereo not drawn) [Example 10, N-(2,3-Dimethoxypropyl)-N-methyl-10-{[2-methyl-2′-trifluoromethyl-[1,1′-biphenyl]-4-yl]carbonyl}-10,11-dihydro-5H-pyrrolo[2,1-c][1,4]benzodiazepine-3-carboxamide] yielded an IC50 of 2220 nM. `Cc1cc(C(=O)N2Cc3ccc(C(=O)N4CCN(C[C@H](O)CO)CC4)n3Cc3ccccc32)ccc1-c1ccccc1C(F)(F)F` [Example 5, (2S)-3-{4-[(10-{[2-Methyl-2′-trifluoromethyl-[1,1′-biphenyl]-4-yl]carbonyl}-10,11-dihydro-5H-pyrrolo[2,1-c][1,4]benzodiazepin-3-yl)carbonyl]piperazin-1-yl}propane-1,2-diol] showed an IC50 of 1190 nM. Work on `Cc1cc(C(=O)N2Cc3ccc(C(=O)N(CCO)CCO)n3Cc3ccccc32)ccc1-c1ccccc1C(F)(F)F` [Example 1, 10-[(2-Methyl-2′-trifluoromethyl-[1,1′-biphenyl]-4-yl)carbonyl]-10,11-dihydro-5H-pyrrolo[2,1-c][1,4]benzodiazepine-3-carboxylic acid bis-(2-hydroxy-ethyl)-amide] yielded an IC50 of 610 nM.
